This is an account of results in publication PMC9902378, “Quinate-based ligands for irreversible inactivation of the bacterial virulence factor DHQ1 enzyme—A molecular insight” (Frontiers in Molecular Biosciences, 2023).

A value given as a limit tells only on which side of the number the result lay.

The subject of experiment [1] is Salmonella enterica DHQ1 enzyme. The note with it: crystal structure PDB ID 4GUI, 1.78 Å; ref Light et al., 2014; cited from earlier work.
Experiment [2] deals with T1, Sa-DHQ1 (Staphylococcus aureus, UniProt Q6GII7).
T1 construct: made in house
T1 sequence (Q6GII7 whole entry): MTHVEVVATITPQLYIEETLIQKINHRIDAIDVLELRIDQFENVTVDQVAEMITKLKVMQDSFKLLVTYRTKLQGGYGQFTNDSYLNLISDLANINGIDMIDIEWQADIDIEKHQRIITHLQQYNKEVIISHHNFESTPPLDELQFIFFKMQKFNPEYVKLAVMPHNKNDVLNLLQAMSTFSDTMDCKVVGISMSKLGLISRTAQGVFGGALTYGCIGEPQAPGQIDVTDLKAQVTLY
As to the kind of experiment: DHQ1 assay, kinetic parameters of the substrate. The format is biochemical. As to conditions: PPB 50 mM, pH 7.2, 25°C. As to the method:
(§1) The St-DHQ1 and Sa-DHQ1 enzyme were purified as described previously ([Moore et al., 1993]; [Nichols et al., 2004]). Concentrated solutions of St-DHQ1 (0.85 mg mL^−1, 30.74 µM) and Sa-DHQ1 (4 mg mL^−1, 148.13 µM) were stored in potassium phosphate buffer (PPB) (50 mM) and DTT (1 mM) at pH 6.6 and −80°C. When required for assays, aliquots of the enzyme stocks were diluted in water and buffer and stored on ice. DHQ1 was assayed in the forward direction by monitoring the increase in absorbance at 234 nm in the UV spectrum due to the absorbance for the enone-carboxylate chromophore of 3-dehydroshikimic acid (ε/M^−1 cm^−1 12 000). Standard assay conditions were PPB (50 mM, pH 7.2) at 25°C. Each assay was initiated by addition of the substrate. Solutions of 3-dehydroquinic acid 1) were calibrated by equilibration with DHQ1 and measurement of the change in the UV absorbance at 234 nm due to formation of the enone-carboxylate chromophore of 3-dehydroshikimic acid. […] The program GraFit 7.0.3. (Erithacus Software Ltd.). was used for data fitting.

Experiment [3] concerns the target T2, St-DHQ1 (Salmonella typhi, UniProt P24670).
T2 construct: made in house
T2 sequence (P24670 1-252): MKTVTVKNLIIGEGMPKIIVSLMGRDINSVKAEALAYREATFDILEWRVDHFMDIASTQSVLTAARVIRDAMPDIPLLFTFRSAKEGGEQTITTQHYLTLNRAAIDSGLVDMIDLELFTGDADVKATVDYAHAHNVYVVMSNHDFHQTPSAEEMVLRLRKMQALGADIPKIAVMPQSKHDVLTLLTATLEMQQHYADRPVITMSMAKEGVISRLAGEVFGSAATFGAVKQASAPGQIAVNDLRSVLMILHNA
As to the kind of experiment: DHQ1 assay, kinetic parameters of the substrate. The format is biochemical. As to conditions: PPB 50 mM, pH 7.2, 25°C. On the procedure:
as §1

Experiment [4] has as its target T1, Sa-DHQ1. As to the kind of experiment: Reversible competitive inhibition assay (initial rates, IC50). Type of experiment: biochemical. The note with it: substrate 14 µM, PPB 50 mM, pH 7.2, 25°C. As to the method:
(§2) The inhibitory capacity of compounds 6–8 against DHQ1 enzymes from S. aureus and S. typhi was evaluated. For irreversible inhibition assays, the enzyme was incubated with the ligand and its remaining activity was progressively determined using aliquots from the incubation samples and the control. For reversible competitive inhibition assays, the activity of the enzyme in the presence of increasing amount of ligand was evaluated. The enzyme activity was determined by monitoring the increase in absorbance at 234 nm in the UV spectrum due to formation of the enone-carboxylate chromophore of the enzyme product, 3-dehydroshikimic acid 2).
as §1
(§3) IC50 values were determined in duplicate by measuring the initial rates at fixed enzyme and substrate concentrations (14 µM) in the absence and in the presence of various compounds concentrations, which was adjusted to the Equation 2 implemented in GraFit: y=Emax / 1+(IC50 / x)^n (2)
(§4) were y is the observed effect at inhibitor concentration x, Emax corresponds to the maximum effect, IC50 is the concentration at which a 50% […] is obtained, and n is the slope of the curve.

The target of experiment [5] is T2, St-DHQ1. The description is as above. The format is biochemical. The note with it: substrate 14 µM, PPB 50 mM, pH 7.2, 25°C. On the procedure: as §2, §1, §3, §4
The target of experiment [6] is T1, Sa-DHQ1. As to the kind of experiment: Time-dependent irreversible inhibition assay (incubation of enzyme with ligand, residual activity at 234 nm). Type of experiment: biochemical. On the procedure:
as §2, §1
(§5) Incubation of Sa-DHQ1 and St-DHQ1 (2.96 µM from a stock protein concentration of […]) with various aqueous solutions of compounds 6–8 (30–4,000 µM) was carried out in PPB (0.5 mL, 50 mM) at pH 7.2 at 25°C. The activity was determined progressively in duplicate over a 3 h period under the standard assay conditions (see above) using aliquots from the incubation samples and the control. Semilogarithmic plots of residual activity as a function of time with a range of inhibitor concentrations [I] were performed to obtain the first-order rate constant, k obs, calculated from the slope, and is related with k inact KI constants by Equation 1 implemented in GraFit ([Plapp, 1982]): kobs=(kinact I) / (KI)+I) (1)

For experiment [7], the target named is T2, St-DHQ1. The description is as above. Type of experiment: biochemical. On the procedure:
as §2, §1, §5

The target in experiment [8] is T2, St-DHQ1. As to the kind of experiment: MALDI mass spectrometry of enzyme incubated with ligand. Type of experiment: binding. As to conditions: for covalent modification of enzyme (MALDI): similar studies, incubation with ligand. As to the method: The covalent modification of DHQ1 by compound 6 was also corroborated by mass spectrometry analysis of samples incubated with and without ligand.
St-DHQ1 (3.1 µM from a stock protein concentration of 0.85 mg mL^−1) and Sa-DHQ1 (3.0 µM from a stock protein concentration of 4 mg mL^−1) was incubated with various aqueous solutions of ligands 6–8 in PPB (0.5 mL, 50 mM) at pH 7.2, 25°C. The activity was determined progressively over a 24 h period under the standard assay conditions using aliquots from the incubation samples and the control. The activity was measured at a substrate concentration of 14 µM. The initial rate of each assay was measured. The samples were concentrated and washed (5 mM ammonium carbonate) for MALDI analysis by centrifugation at 4 °C using Amicon® centrifugal filters (Amicon Ultra-10). The samples were freeze-dried, diluted with 5 mM ammonium bicarbonate (5 µL) and analyzed by mass spectrometry using a MALDI TOF/TOF Mass Spectrometer (4,800 Analyzer, AbSciex). The ProteoMass™ MALDI calibration kit (Merck) was employed for calibration and sanipic acid as a matrix. Spectra were analyzed using the Data Explorer™ Software. Experiments were performed in triplicate.
Figure S3. MALDI spectra of St-DHQ1 after incubation with 3-hydroxylaminoquinic acid (6) (left) and the control (right). Incubation conditions were potassium phosphate buffer (50 mM, pH 7.0), 25 °C and (1:120) protein/ligand ratio, 24 h. After incubation and for MALDI analysis, the samples were successively washed with 5 mM […] by centrifugation at 4 °C using Amicon® centrifugal filters and concentrated. Sinapic acid was used as a matrix.
(1 picture or pasted object on this page, not shown here)

Setting [9] is: PPB 50 mM, pH 7.2, 25°C, time-dependent irreversible inhibition.

Take `O=C(O)[C@]1(O)C[C@@H](O)[C@@H](O)[C@H](O)C1` [(–)-quinic acid (9), (–)-quinic acid]: in experiment [1], the “covalent adduct formation with the enzyme” value is “does not form a covalent adduct”.
Turning to `O=C1C[C@@](O)(C(=O)O)C[C@@H](O)[C@@H]1O` [3-dehydroquinic acid], the K m at Sa-DHQ1 [2] turned out to be 18 ± 3 µM; on St-DHQ1 [3] it was 24 ± 3 µM. Besides, the k cat at Sa-DHQ1 [2] worked out at 255 ± 12 s⁻¹; on St-DHQ1 [3], 1.1 ± 0.1 s⁻¹.
Take `N[C@@H]1C[C@@](O)(C(=O)O)C[C@@H](O)[C@@H]1O` [Compound 7, (1S,3R,4R,5R)-3-amino-1,4,5-trihydroxycyclohexane-1-carboxylic acid]: the values for the IC50 on Sa-DHQ1 [4] and at St-DHQ1 [5] were 482 ± 19 µM and 528 ± 33 µM, respectively. Also, the type of inhibition result at Sa-DHQ1 [6] and on St-DHQ1 [7] was “reversible competitive inhibitors” each time. The “covalent modification of enzyme (MALDI)” value at St-DHQ1 [8] is given as “No modifications”.
Take `O=C(O)[C@@]1(O)C[C@@H](O)[C@H](O)[C@H](NO)C1` [Compound 6, (1S,3R,4R,5R)-1,3,4-trihydroxy-5-hydroxylaminocyclohexane-1-carboxylic acid]: the type of inhibition result on Sa-DHQ1 [6] and at St-DHQ1 [7] was “time-dependent irreversible inhibitor” throughout. Further, the k inact on Sa-DHQ1 [6] (PPB 50 mM, pH 7.2, 25°C) came to 8 ± 1 ms^−1; at St-DHQ1 [7] (PPB 50 mM, pH 7.2, 25°C), 13 ± 1 ms^−1. Besides, the Ki at Sa-DHQ1 [6] (setting [9]) stood at 90 ± 8 µM; at St-DHQ1 [7] (setting [9]), 130 ± 12 µM. The “additional mass of covalently modified enzyme (MALDI)” value on St-DHQ1 [8] (St-DHQ1, ∼1:120 enzyme/ligand ratio, 24 h, 25°C) is 158.
Take `O=C(O)[C@@]1(O)C[C@@H](O)[C@H](O)[C@@H]2O[C@@H]21` [Compound 8, (1S,2R,4R,5S,6S)-2,4,5-trihydroxy-7-oxabicyclo[4.1.0]heptane-2-carboxylic acid]: the IC50 on Sa-DHQ1 [4] and on St-DHQ1 [5] was more than 2000 µM each time. The type of inhibition entry at Sa-DHQ1 [6] and on St-DHQ1 [7] was “reversible competitive inhibitors” in each case. The “covalent modification of enzyme (MALDI)” value at St-DHQ1 [8] was “No modifications”.

The IC50 is the midpoint of a concentration-inhibition curve. High values mean lower potency, low ones higher potency.
